14 compounds from US8980886B2, “Anthranilic acid derivatives” (Bayer Cropscience AG, priority 2010, dated 2015) can be followed below.

The nature of data set [1]: logP by HPLC on reversed-phase columns (C 18), EEC Directive 79/831 Annex V.A8. The format is physicochemical. Conditions: reversed-phase HPLC column (C 18), pH 2.7, HPLC, reversed-phase C 18, acidic range pH 2.7; table of compounds; read-out: log P. Here is the method: The logP values reported in the table above and in the Preparation Examples were determined in accordance with EEC Directive 79/831 Annex V.A8 by HPLC (High Performance Liquid Chromatography) on reversed-phase columns (C 18), with the following methods: The LC-MS determination in the acidic range is carried out at pH 2.7 using the mobile phases 0.1% aqueous formic acid and acetonitrile (contains 0.1% formic acid), linear gradient from 10% acetonitrile to 95% acetonitrile Calibration was carried out using unbranched alkan-2-ones (having from 3 to 16 carbon atoms) with known logP values (the logP values were determined by the retention times using linear interpolation between two successive alkanones).

Data set [2] relates to Phaedon cochleariae. In words: Phaedon test (PHAECO spray treatment). Conditions: 168 h, sprayed Chinese cabbage discs, after 7 days, read-out: activity in % (beetle larvae killed). It is filed as in vivo. Here is the method: (§1) Solvents: 78.0 parts by weight of acetone 1.5 parts by weight of dimethylformamide Emulsifier: 0.5 part by weight of alkylaryl polyglycol ether To produce a suitable preparation of active compound, 1 part by weight of active compound is mixed with the stated amount of solvents and emulsifier, and the concentrate is diluted with emulsifier-containing water to the desired concentration. Discs of Chinese cabbage (Brassica pekinensis) are sprayed with an active compound preparation of the desired concentration and, after drying, populated with larvae of the mustard beetle (Phaedon cochleariae). After 7 days, the activity in % is determined. 100% means that all beetle larvae have been killed; 0% means that none of the beetle larvae have been killed.

The test system of data set [3] is Spodoptera frugiperda. The experiment in a line: Spodoptera frugiperda test (SPODFR spray treatment). It is filed as in vivo. The following applies: foliar, 168 h, sprayed maize leaf discs, after 7 days, read-out: effect in % (caterpillars killed). The procedure:
as §1, with “maize leaves (Zea mays)” for “Chinese cabbage (Brassica pekinensis)”, “caterpillars” for “larvae”, “armyworm (Spodoptera frugiperda).” for “mustard beetle (Phaedon cochleariae).”, “effect” for “activity”, “determined” for “determined.”, “caterpillars” for “beetle larvae”

In data set [4] the test system is Lucilia cuprina. In words: Lucilia cuprina test (LUCICU). The format is in vivo. Conditions: 48 h, treated horse meat, larvae, after 2 days, read-out: kill in %. Here is the method:
Solvent: dimethyl sulphoxide To produce a suitable preparation of active compound, 10 mg of active compound are mixed with 0.5 ml of dimethyl sulphoxide and the concentrate is diluted with water to the desired concentration. Vessels containing horse meat treated with the active compound preparation of the desired concentration are populated with about 20 Lucilia cuprina larvae. After 2 days, the kill in % is determined. 100% means that all of the larvae have been killed; 0% means that none of the larvae have been killed.

Data set [5] deals with Boophilus microplus. In words: Boophilus microplus test (BOOPMI injection). The following applies: 20 μg/animal, injection into the abdomen, after 7 days. The format is in vivo. Here is the method:
Solvent: dimethyl sulphoxide To produce a suitable preparation of active compound, 10 mg of active compound are mixed with 0.5 ml of solvent and the concentrate is diluted with solvent to the desired concentration. The active compound solution is injected into the abdomen (Boophilus microplus), and the animals are transferred into dishes and stored in a climate-controlled room. The activity is assessed by […] of fertile eggs. After 7 days, the effect in % is determined. 100% means that none of the ticks has laid any fertile eggs.

Molecules are shown by their SMILES.

For the compound `CNC(=O)c1cc(Cl)cc(C)c1NC(=O)c1sc(Cn2nnc(C(F)(F)F)n2)nc1-c1ccccc1Cl` [Compound 10], the chromatographic logP in data set [1] is 3.63. The pest or weed control at 100 g/ha in data set [2] is 100%.

For `Cc1cc(Br)cc(C(=O)NC(C)C)c1NC(=O)c1sc(Cn2nnc(C(F)(F)F)n2)nc1-c1ccccc1Cl` [Compound 11], the chromatographic logP in data set [1] stood at 4.28. Also, the pest or weed control at 100 g/ha in data set [3] and in data set [2] was 83% throughout.

As for `CNC(=O)c1cc(Br)cc(C)c1NC(=O)c1sc(Cn2nnc(C(F)(F)F)n2)nc1-c1ccccc1Cl` [Compound 12], the chromatographic logP in data set [1] came to 3.73. The pest or weed control at 100 g/ha in data set [2] came to 83%.

As for `Cc1cc(Cl)cc(C(N)=O)c1NC(=O)c1sc(Cn2nnc(C(F)(F)F)n2)nc1-c1ccccc1Cl` [Compound 13], in data set [1], the chromatographic logP amounted to 3.34. In addition, the pest or weed control at 100 g/ha in data set [3] and in data set [2] was 100% in each case.

On to `Cc1cc(C#N)cc(C(=O)NC(C)C)c1NC(=O)c1sc(Cn2nnc(C(F)(F)F)n2)nc1-c1ccccc1Cl` [Compound 25], for which the chromatographic logP in data set [1] is 3.7. In addition, the pest or weed control at 100 g/ha in data set [3] and in data set [2] was 100% in each case.

As to `Cc1cc(Br)cc(C(=O)NC(C)(C)C)c1NC(=O)c1sc(Cn2nnc(C(F)(F)F)n2)nc1-c1ccccc1Cl` [Compound 26], the chromatographic logP in data set [1] was 4.69. The pest or weed control at 100 g/ha in data set [3] and in data set [2] was 100% each time.

Turning to `Cc1cc(Cl)cc(C(=O)NC(C)(C)C)c1NC(=O)c1sc(Cn2nnc(C(F)(F)F)n2)nc1-c1ccccc1Cl` [Compound 27], the chromatographic logP in data set [1] came out at 4.59. For the same compound, the pest or weed control at 100 g/ha in data set [3] and in data set [2] was 100% throughout.

`Cc1cc(C#N)cc(C(=O)NC(C)(C)C)c1NC(=O)c1sc(Cn2nnc(C(F)(F)F)n2)nc1-c1ccccc1Cl` [Compound 30]: in data set [1], the chromatographic logP came to 4.07. The pest or weed control at 100 g/ha in data set [3] and in data set [2] was 100% in each case.

On to `Cc1cc(Cl)cc(C(=O)NC(C)C)c1NC(=O)c1sc(Cn2nnc(C(F)(F)F)n2)nc1-c1ccccc1Cl` [Compound 32], for which the chromatographic logP in data set [1] worked out at 4.15. The pest or weed control at 100 g/ha in data set [3] and in data set [2] was 100% in each case.

Take `Cc1cc(Cl)cc(C(=O)NC(C)C)c1NC(=O)c1cnc(Cn2nnc(C(F)(F)F)n2)nc1-c1ccccc1Cl` [Compound 34]: in data set [1], the chromatographic logP amounted to 3.91. The pest or weed control at 100 ppm in data set [4] came out at 100%. Further, the “effect in % (no fertile eggs laid)” value in data set [5] came out at 100%. In addition, the pest or weed control at 100 g/ha in data set [3] and in data set [2] was 100% in each case.

On to `Cc1cc(Cl)cc(C(N)=O)c1NC(=O)c1cnc(Cn2nnc(C(F)(F)F)n2)nc1-c1ccccc1Cl` [Compound 35], for which the chromatographic logP in data set [1] turned out to be 3.01. Further, the pest or weed control at 100 ppm in data set [4] worked out at 100%. Also, in data set [5], the “effect in % (no fertile eggs laid)” value worked out at 98%. Moreover, the pest or weed control at 100 g/ha in data set [3] and in data set [2] was 100% each time.

`CNC(=O)c1cc(Cl)cc(C)c1NC(=O)c1cnc(Cn2nnc(C(F)(F)F)n2)nc1-c1ccccc1Cl` [Compound 36]: in data set [1], the chromatographic logP stood at 3.31. Further, the pest or weed control at 100 g/ha in data set [3] and in data set [2] was 100% throughout.

Regarding `CNC(=O)c1cc(C#N)cc(C)c1NC(=O)c1cnc(Cn2nnc(C(F)(F)F)n2)nc1-c1ccccc1Cl` [Compound 38], the chromatographic logP in data set [1] is 2.93. The pest or weed control at 100 ppm in data set [4] was 100%. Further, in data set [5], the “effect in % (no fertile eggs laid)” value is 100%. The pest or weed control at 100 g/ha in data set [3] and in data set [2] was 100% in each case.

As to `CNC(=O)c1cc(Cl)cc(C)c1NC(=O)c1cc(Cn2nnc(C(F)(F)C(F)(F)F)n2)cn1-c1ccccc1Cl` [Compound 44], the chromatographic logP in data set [1] stood at 4.09. For the same compound, the pest or weed control at 100 g/ha in data set [3] and in data set [2] was 100% throughout.
